Read-outs that look alike come from different tables or passages of the source.
Legend:
[1] = tested on: termite (Reticulitermes flavipes) workers; test: Termite mortality by soil applications of combinations of bifenthrin and acetamiprid (soil column in glass tube); assay type: in vivo; conditions: soil application, read-out: Percent Mortality; for mortality at 60 ppm: Bifenthrin @ 60 ppm; for mortality at 500 ppm: Acetamiprid @ 500 ppm
Method: (§1) Test compositions made up of Talstar® Termiticide/Insecticide and a 70% wettable powder of acetamiprid in distilled water were prepared that provided appropriate rates of application of combinations of bifenthrin and acetamiprid, as well as bifenthrin and acetamiprid alone.
Glass tubing, 13 mm in diameter, was then cut into 20 cm sections in sufficient quantity to conduct the test. Each […] section of tubing was marked at 5 cm, 8 cm, and 18 cm distances from one end of the tube designated as the bottom. Each section of tubing was packed with a sandy soil (3% wt/wt moisture content) by first placing a section of a 1 cm diameter wooden dowel into the bottom of the glass tube up to the 8 cm marking, then introducing approximately 2 cm of soil into the other end of the tube designated as the top. The soil was then gently packed into the tube from the top using a second section of the 1 cm diameter wooden dowel. The process was repeated using 2 cm aliquots of soil until the soil level was adjacent to the 18 cm marking, thereby providing a column of soil 10 cm in height. An agar plug, which was formed in a section of the 13 mm diameter glass tubing of the type used to conduct these tests, was cut into 3 cm sections. A 3 cm section of agar was then gently pushed into the bottom of each tube containing the soil until the agar plug firmly touched the soil at the 8 cm marking, thereby creating a 5 cm void in the bottom of each section of tubing. Following placement of the agar plugs in each section of tubing; two sections of applicator sticks cut in 6 cm lengths were inserted into the bottom end of each tube thereby forcing about 1 cm of each stick into the agar plug to hold the agar plug in place. Plastic caps, with an inside diameter of 13 mm and holes drilled in their centers, were placed on the bottom ends of each of the sections of tubing. A sharpened applicator stick was then inserted into the hole in each plastic cap through the agar plug to the intersection of the agar plug and the soil. The applicator stick was then gently removed in a rotating manner to provide a means for a free flow of liquid through the soil. Each section of tubing was then stood upright, and 0.5 niL aliquots of each suspension of bifenthrin, acetamiprid or combinations thereof, as prepared above, were pipetted onto the top of the soil. Upon application of the test suspensions the top of each section of tubing was covered with a small piece of aluminum foil. The tubes were then allowed to stand for about 20 hours to allow movement of the termiticide(s) downward into the soil. After this time a plastic cap of 13 mm inside diameter was placed on the top of each section of tubing. The plastic caps with the holes drilled in their centers were removed from the bottom of each section of tubing, and a piece of 0.5 cm×4 cm filter paper was then placed between the two sections of applicator sticks. Fifty termite (Reticulitermes flavipes) workers were then inserted into the 5 cm void in the bottom of each section of tubing. New plastic caps without holes drilled in their centers were placed on the bottom of each section of tubing. The sections of tubing were then stored in an upright position, with the termites located below the soil. At 1, 3, 6, 8, 10, 13, 15, 17, 20, and 22 days after treatment (DAT), termite mortality was measured.

[2] = tested on: termites (Reticulitermes flavipes); test: Termite mortality by direct application (track sprayer) of combinations of bifenthrin and acetamiprid to termites; assay type: in vivo; conditions: for mortality at 10 ppm / mortality at 50 ppm / mortality at 100 ppm / mortality at 200 ppm: Reticulitermes flavipes, read-out: Percent Mortality
Method: as §1
Solutions of the test materials were applied directly to 50 termites (Reticulitermes flavipes) per petri plate using a track sprayer calibrated to deliver 1.2 ml per petri plate at 40 psi. After application, petri dishes with treated termites were inverted onto fresh petri plates containing dry filter paper. After all applications were completed, termites were then transferred to petri dishes containing moist soil with cardboard as a food source. Expired termites were removed at each reading. At 0 hours, 1 hour, 2 hours, 1 day, and 2 days after treatment (HAT or DAT, respectively), termite mortality was measured. The following calculation determined whether the combination treatments provided enhanced activity over what would be expected based on the activity of each active ingredient separately: [formula]
A and B refer to the two separate treatments of two different active ingredients at specific rates.

For Cc1c(COC(=O)[C@@H]2[C@H](/C=C(\Cl)C(F)(F)F)C2(C)C)cccc1-c1ccccc1 (racemic) [Bifenthrin, bifenthrin], the mortality at 60 ppm ([1]; 24 h, 1 DAT) was 6%, the mortality at 60 ppm ([1]; 72 h, 3 DAT) was 6% and the mortality at 60 ppm ([1]; 144 h, 6 DAT) was 11%. It also gave a mortality at 60 ppm ([1]; 192 h, 8 DAT) of 13%, a mortality at 60 ppm ([1]; 240 h, 10 DAT) of 13% and a mortality at 60 ppm ([1]; 312 h, 13 DAT) of 13%. For the same compound, the mortality at 60 ppm ([1]; 360 h, 15 DAT) was 16%, the mortality at 60 ppm ([1]; 408 h, 17 DAT) was 16% and the mortality at 60 ppm ([1]; 480 h, 20 DAT) was 16%. The mortality at 60 ppm ([1]; 528 h, 22 DAT) was 16%, the “Percent Mortality” value ([2]; Bifenthrin @ 10 ppm, 1 HAT) was 0% and the “Percent Mortality” value ([2]; Bifenthrin @ 10 ppm, 2 HAT) was 0%. For the same compound, the “Percent Mortality” value ([2]; Bifenthrin @ 50 ppm, 1 HAT) was 0%, the “Percent Mortality” value ([2]; Bifenthrin @ 50 ppm, 2 HAT) was 0% and the mortality at 10 ppm ([2]; 24 h, Bifenthrin @ 10 ppm, 1 DAT) was 11%. The mortality at 50 ppm ([2]; 24 h, Bifenthrin @ 50 ppm, 1 DAT) was 63%, the mortality at 10 ppm ([2]; 48 h, Bifenthrin @ 10 ppm, 2 DAT) was 26% and the mortality at 50 ppm ([2]; 48 h, Bifenthrin @ 50 ppm, 2 DAT) was 96%. It also gave a mortality at 10 ppm ([2]; Bifenthrin @ 10 ppm, 0 HAT) of 0% and a mortality at 50 ppm ([2]; Bifenthrin @ 50 ppm, 0 HAT) of 0%.
Work on C/C(=N\C#N)N(C)Cc1ccc(Cl)nc1 [Acetamiprid, acetamiprid] yielded a mortality at 500 ppm ([1]; 24 h, 1 DAT) of 5%, a mortality at 500 ppm ([1]; 72 h, 3 DAT) of 84% and a mortality at 500 ppm ([1]; 144 h, 6 DAT) of 100%. For the same compound, the mortality at 500 ppm ([1]; 192 h, 8 DAT) was 100%, the mortality at 500 ppm ([1]; 240 h, 10 DAT) was 100% and the mortality at 500 ppm ([1]; 312 h, 13 DAT) was 100%. It also gave a mortality at 500 ppm ([1]; 360 h, 15 DAT) of 100%, a mortality at 500 ppm ([1]; 408 h, 17 DAT) of 100% and a mortality at 500 ppm ([1]; 480 h, 20 DAT) of 100%. The mortality at 500 ppm ([1]; 528 h, 22 DAT) was 100%, the “Percent Mortality” value ([2]; Acetamiprid @ 100 ppm, 1 HAT) was 0% and the “Percent Mortality” value ([2]; Acetamiprid @ 100 ppm, 2 HAT) was 0%. The “Percent Mortality” value ([2]; Acetamiprid @ 200 ppm, 1 HAT) was 0%, the “Percent Mortality” value ([2]; Acetamiprid @ 200 ppm, 2 HAT) was 0% and the mortality at 100 ppm ([2]; 24 h, Acetamiprid @ 100 ppm, 1 DAT) was 16%. It also gave a mortality at 200 ppm ([2]; 24 h, Acetamiprid @ 200 ppm, 1 DAT) of 35%, a mortality at 100 ppm ([2]; 48 h, Acetamiprid @ 100 ppm, 2 DAT) of 78% and a mortality at 200 ppm ([2]; 48 h, Acetamiprid @ 200 ppm, 2 DAT) of 88%. The mortality at 100 ppm ([2]; Acetamiprid @ 100 ppm, 0 HAT) was 0% and the mortality at 200 ppm ([2]; Acetamiprid @ 200 ppm, 0 HAT) was 0%.
